The source of these data is patent US12509421B2, “Preparation and application of deuterated 4-phenyl-4-piperidinols” (priority 2022, dated 2025).

For series [1], the target named is T1, hERG potassium channel (Homo sapiens, UniProt Q12809). The following applies: read-out: hERG IC50; J Med Chem.2013 24; 56 (20): 8019-31; cited from earlier work. On the technique in general: The hERG channel carries a current that helps repolarise heart muscle cells.
The nature of series [2]: Metabolic stability in liver microsomes, mouse. The following applies: mouse, microsomes, pH 7.4. How it is done: (§1) The solution B is slowly dropped into solution A, and the pH is adjusted to 7.40±0.05.
(§2) • Control drug: 4 μL Verapamil solution (10 mM) is added with 96 μL DMSO and diluted to 400 μM; • Compound to be tested: 4 μL compound to be tested (10 mM) is added with 96 μL normal saline and diluted to 400 μM.
(§3) The microsomes are stored in the refrigerator at −80° C., thawed at room temperature after being taken out, and mixed gently.
(§4) […] PBS (100 mm, pH=7.4) solution is added to the negative sample. The solution is put into water bath at 37° C. and pre-incubated for 10 minutes; • B) After incubation, 2 μL reference drug or compound to be tested (400 μM) are added into each well to start the reaction.
(In general: Microsomes from liver hold many membrane-bound enzymes, among them those of drug oxidation.)

A short description of series [3]: Metabolic stability in liver microsomes, dog. Conditions: dog, microsomes, pH 7.4. How it is done: as §1, §2, §3, §4
The nature of series [4]: Metabolic stability in liver microsomes, human. The following applies: human, microsomes, pH 7.4. How it is done: as §1, §2, §3, §4
The next series deals with CYP 2C9 (Homo sapiens, UniProt P11712). Kind of series: Inhibition of cytochrome P450 enzyme in human liver microsomes, CYP 2C9.
Chain of CYP 2C9 (P11712 whole entry): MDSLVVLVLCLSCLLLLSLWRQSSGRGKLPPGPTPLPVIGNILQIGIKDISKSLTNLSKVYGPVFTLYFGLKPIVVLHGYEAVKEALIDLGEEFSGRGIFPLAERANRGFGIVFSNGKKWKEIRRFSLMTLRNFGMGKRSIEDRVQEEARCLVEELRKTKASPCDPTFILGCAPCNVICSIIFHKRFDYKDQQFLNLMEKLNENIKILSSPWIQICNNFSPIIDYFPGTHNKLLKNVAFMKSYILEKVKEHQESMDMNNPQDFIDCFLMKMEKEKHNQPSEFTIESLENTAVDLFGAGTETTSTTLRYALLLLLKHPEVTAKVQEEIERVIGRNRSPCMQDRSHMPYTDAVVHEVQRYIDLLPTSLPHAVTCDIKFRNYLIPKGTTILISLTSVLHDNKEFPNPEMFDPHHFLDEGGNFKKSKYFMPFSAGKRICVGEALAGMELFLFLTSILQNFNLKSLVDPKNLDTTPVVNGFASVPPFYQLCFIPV
The target in series [5] is T1, hERG potassium channel. Kind of series: hERG potassium channel whole-cell patch clamp (HEK293). In kind it is cell-based. Also noted: expressed in transfected cells; host or cells: HEK293 cell line. An excerpt: The rapidly activated potassium channel encoded by human ether-a-go-go-related gene (hERG) is an important ion channel involved in the formation of phase 3 repolarization of myocardial action potential. […] Drug-induced delayed ventricular repolarization may cause fatal arrhythmia-torsade de pointes in some cases. According to statistics, about 25-40% of the lead compounds show different degrees of hERG-related toxicity, and many drugs are withdrawn from the market because they may lead to the risk of QT interval extension. At present, National Medical Products Administration also requires hERG/IKr safety evaluation data before clinical trial application (IND) of new drugs under study. • 1. Whole-cell patch clamp technique is used to study the inhibitory effect of compounds on hERG potassium channels: • 1) the compound to be tested is stored with physiological saline prepared into 10 mM liquid. The test stock solution is diluted with physiological saline into 3 mM, 1 mM and 0.3 mM diluents in turn. […] The old culture medium removed and is washed once with PBS, then added with 1 mL TrypLE™ Express solution and incubated at 37° C. for about 0.5 minutes. When the cells are detached from the bottom of the dish, about 5 ml complete medium preheated is added at 37° C. The cell suspension is gently blown with a straw to separate the aggregated cells. The cell suspension is transferred to a sterile centrifuge tube and centrifuged at 1000 rpm for 5 minutes to collect cells. […] The clamping voltage is depolarized from −80 mV to −50 mV for 0.5 seconds (as leakage current detection), then stepped to 30 mV for 2.5 seconds, and then quickly recovered to −50 mV for 4 seconds, which can excite the tail current of hERG channel. Data are collected repeatedly every 10s to observe the effect of drugs on hERG tail current. 0.5 seconds-50 mV stimulation is used as leakage current detection. The test data are collected by IPA amplifier (Sutter Instrument) and stored in SutterPatch software.
Capillary glass tube is drawn into recording electrode by microelectrode drawing instrument. Under the inverted microscope, the microelectrode manipulator is operated to contact the recording electrode with the cell, and negative pressure suction is given to form a GΩ seal. After the GΩ seal is formed, rapid capacitance compensation is carried out, and then negative pressure is continuously applied to break the cell membrane, forming a whole cell recording mode. Then the slow capacitance is compensated and the film capacitance and series resistance are recorded. No leakage compensation is given.
When the hERG current recorded in the whole cell is stable, the drug is administered, and the next concentration is detected after each drug concentration acts for 5 minutes (or the current is stable), and multiple concentrations are detected for each test compound. The cover glass covered with cells is placed in the recording bath in an inverted microscope, and the test compound and the external liquid containing no compound flowed through the recording bath from low concentration to high concentration by gravity perfusion method, so as to act on the cells, and liquid exchange is carried out by using a vacuum pump during recording. The current detected by each cell in the external fluid without compounds is used as its own control group.
At least two cells are used to detect each concentration independently and repeatedly twice. All electrophysiological tests are conducted at room temperature.
Firstly, the current after each drug concentration and the blank control current are standardized
[formula] followed by the calculation of the inhibition rate
[formula] corresponding to each drug concentration, the average and standard deviation for each concentration, and the semi-inhibition concentration of each compound with the following equation: […]
The dose-dependent effect is nonlinear fitted by the above equation, and IC50 is semi-inhibitory concentration.

A further series concerns the target CYP 2D6 (Homo sapiens, UniProt P10635). Kind of series: Inhibition of cytochrome P450 enzyme in human liver microsomes, CYP 2D6.
In another series the target is CYP 2C19 (Homo sapiens, UniProt P33261). As to the kind of experiment: Inhibition of cytochrome P450 enzyme in human liver microsomes, CYP 2C19.
Chain of CYP 2C19 (P33261 whole entry): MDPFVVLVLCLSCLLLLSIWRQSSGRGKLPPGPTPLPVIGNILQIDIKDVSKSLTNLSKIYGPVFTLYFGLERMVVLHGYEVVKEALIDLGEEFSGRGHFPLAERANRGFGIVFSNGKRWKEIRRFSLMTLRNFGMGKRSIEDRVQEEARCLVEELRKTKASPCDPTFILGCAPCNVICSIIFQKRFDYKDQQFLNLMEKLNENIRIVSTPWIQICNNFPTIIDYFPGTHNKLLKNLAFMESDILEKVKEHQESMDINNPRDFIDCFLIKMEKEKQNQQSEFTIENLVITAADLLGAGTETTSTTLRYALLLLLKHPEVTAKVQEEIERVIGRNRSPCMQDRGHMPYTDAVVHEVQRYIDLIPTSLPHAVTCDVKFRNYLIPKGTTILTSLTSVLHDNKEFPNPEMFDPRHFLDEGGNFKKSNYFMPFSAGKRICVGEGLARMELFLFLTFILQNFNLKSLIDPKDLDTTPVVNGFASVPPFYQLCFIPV
Series [6] can be described thus: Metabolic stability in liver microsomes, rat. The following applies: rat, microsomes, pH 7.4. How it is done:
as §1, §2, §3, §4

Entries after “also recorded” stand apart in the source; their conditions may differ. Where two headings read alike, the source gives them in different places.

T1 sequence (Q12809 whole entry): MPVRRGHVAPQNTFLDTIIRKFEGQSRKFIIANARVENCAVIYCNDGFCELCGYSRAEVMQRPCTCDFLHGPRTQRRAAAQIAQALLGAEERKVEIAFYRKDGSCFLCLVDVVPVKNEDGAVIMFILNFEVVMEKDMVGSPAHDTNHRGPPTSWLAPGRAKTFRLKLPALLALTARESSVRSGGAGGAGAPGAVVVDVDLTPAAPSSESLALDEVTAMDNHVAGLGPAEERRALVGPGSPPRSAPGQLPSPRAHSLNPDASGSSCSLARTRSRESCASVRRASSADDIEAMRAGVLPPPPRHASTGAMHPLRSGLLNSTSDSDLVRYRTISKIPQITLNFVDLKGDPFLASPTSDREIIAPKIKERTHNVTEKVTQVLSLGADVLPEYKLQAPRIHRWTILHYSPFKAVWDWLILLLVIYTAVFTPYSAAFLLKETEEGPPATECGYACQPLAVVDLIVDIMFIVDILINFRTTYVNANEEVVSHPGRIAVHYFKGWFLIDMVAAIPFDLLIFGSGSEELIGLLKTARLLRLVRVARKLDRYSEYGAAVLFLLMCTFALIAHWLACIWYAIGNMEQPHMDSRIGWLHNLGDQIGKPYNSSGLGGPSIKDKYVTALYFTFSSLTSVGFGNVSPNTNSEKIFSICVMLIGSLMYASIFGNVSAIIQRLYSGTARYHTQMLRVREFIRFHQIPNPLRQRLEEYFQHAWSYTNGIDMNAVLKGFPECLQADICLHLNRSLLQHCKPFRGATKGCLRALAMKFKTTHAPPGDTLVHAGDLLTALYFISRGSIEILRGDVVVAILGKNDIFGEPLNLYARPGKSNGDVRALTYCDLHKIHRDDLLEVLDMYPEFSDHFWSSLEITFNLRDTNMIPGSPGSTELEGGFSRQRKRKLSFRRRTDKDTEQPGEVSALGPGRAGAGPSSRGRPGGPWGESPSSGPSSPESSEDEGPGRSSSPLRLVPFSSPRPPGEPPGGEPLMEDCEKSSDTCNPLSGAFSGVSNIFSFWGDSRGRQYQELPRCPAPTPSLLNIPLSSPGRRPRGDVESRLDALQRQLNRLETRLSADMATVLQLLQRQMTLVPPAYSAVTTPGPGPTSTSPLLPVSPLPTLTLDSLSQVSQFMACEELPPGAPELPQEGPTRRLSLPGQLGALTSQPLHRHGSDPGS
Chain of CYP 2D6 (P10635 whole entry): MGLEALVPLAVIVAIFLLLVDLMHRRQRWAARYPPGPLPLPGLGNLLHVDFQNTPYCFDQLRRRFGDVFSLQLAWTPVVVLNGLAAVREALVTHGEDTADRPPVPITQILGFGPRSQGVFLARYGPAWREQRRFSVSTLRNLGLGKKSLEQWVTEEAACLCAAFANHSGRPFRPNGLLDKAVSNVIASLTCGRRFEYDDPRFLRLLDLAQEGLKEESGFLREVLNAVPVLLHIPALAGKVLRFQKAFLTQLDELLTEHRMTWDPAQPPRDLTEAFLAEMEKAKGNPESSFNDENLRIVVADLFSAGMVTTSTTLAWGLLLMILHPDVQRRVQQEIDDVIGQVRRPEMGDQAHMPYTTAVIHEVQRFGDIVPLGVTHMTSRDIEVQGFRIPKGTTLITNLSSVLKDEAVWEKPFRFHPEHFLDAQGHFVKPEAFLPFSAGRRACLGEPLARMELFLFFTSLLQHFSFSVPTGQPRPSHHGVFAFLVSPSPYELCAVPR

As to `COc1ccsc1CNCC[C@@]1(c2ccccn2)CCOC2(CCCC2)C1` [TRV-130, reference compound], the half-inhibitory concentration (IC50) on hERG potassium channel [1] is 6.2 µM; against CYP 2C9, over 50 µM; at hERG potassium channel [5], 6.17 µM; at CYP 2D6, 7.17 µM; against CYP 2C19, over 50 µM. Also, the half-life at 2 μM worked out at 1.67 min in series [2], 2.22 min in series [3], 4.08 min in series [4] and 1.61 min in [6]. Besides, the microsomal CLint at 2 μM in [2] was 831 µL/min/mg; in series [3] it was 624 µL/min/mg; in series [4] it was 340 µL/min/mg; in series [6], 863 µL/min/mg. Besides, the “hERG inhibition grade” value on hERG potassium channel [5] is given as “moderate inhibitory effects on hERG; also recorded: μM(Moderate intensity inhibition)”.

By IC50 is commonly meant the midpoint of a concentration-inhibition curve. As a reminder, the half-life is how long it takes for the measured level to halve. A higher half-life goes with slow decline. What is called microsomal CLint is a measure of how fast metabolising enzymes remove a compound, apart from limits set by blood flow. Low values mean slow turnover, high ones rapid turnover.
